Data taken from patent US20220024879A1, “COMPOUNDS FOR TREATMENT OF HEPACI VIRUS INFECTION AND METHOD FOR DETERMINING THERAPY OF HEPACI VIRUS INFECTION, IN PARTICULAR, HCV INFECTION” (priority 2018, published 2022).

What was measured:
[1] = system: low pH-triggered HCV cell membrane fusion; experiment: Fusion at the plasma membrane assay; assay type: cell-based, Hepatitis C virus; details: 5 nM Con A, pH 5.0 wash 5 minutes
[2] = system: J8 (GT2b); assay type: cell-based
[3] = system: JcR2a/J8-E1-R3.2_4 aa; assay type: cell-based, Hepatitis C virus; details: M290A, W299N, V301T, P310Q
[4] = system: Jc1 and HCV strains Con1 (GT1b), J8 (GT2b), S52 (GT3a), ED43 (GT4a), SA13 (GT5a), HK6a (GT6a) and QC69 (GT7a); assay type: cell-based; details: Jc1 versus GT1b, 2b, 3a, 4a, 5a, 6a, 7a strains
[5] = system: JcR2a-Flun-R; assay type: cell-based
[6] = system: JcR2a; experiment: HCV whole life cycle compound screening assay; assay type: cell-based, Hepatitis C virus; details: Jc1 reporter virus, versus flunarizine
[7] = system: low pH-triggered HCV cell membrane fusion; details: earlier work of the applicant, data not shown; cited from earlier work
[8] = system: Jc1R2a/J8-E1 chimera; assay type: cell-based; details: entire E1 replaced
[9] = system: JcR2a-E1 R4; assay type: cell-based; details: 313-383
[10] = system: JcR2a/J8-E1_R1; assay type: cell-based; details: Aa 192-230
[11] = system: Jc1/J8-E1_R3; assay type: cell-based; details: Aa 267-312
[12] = system: JcR2a-Flun-R; details: Jc1 passaged in presence of flunarizine; Perin et al.; cited from earlier work
[13] = system: Huh-7.5-fluc cells

Row | Compound | resistance of J8 (GT2b) (in words) [2] | resistance of JcR2a/J8-E1-R3.2_4 aa, shift of the IC50 versus parental JcR2a [3] | strain-dependent antiviral activity (in words) [4] | antiviral activity, effect of the substituent (SAR, in words) [6] | further results
1 | COc1ccc(-c2cc(=O)c3c(O)c(O)c(OC)cc3o2)cc1 [BJ486K] |  |  |  |  | inhibition of HCV infection when administered only during the low pH washing step [1]: did not inhibit HCV infection
2 | CN1CCN(C(c2ccccc2)c2ccc(Cl)cc2)CC1 (centres unmarked) [chlorcyclizine] | pronounced resistance | 6 fold | preferentially inhibited Jc1 |  | 
3 | COc1cc(/C=C/C(=O)CC(=O)/C=C/c2ccc(O)c(OC)c2)ccc1O [curcumin] |  | not | similarly active against all tested viruses |  | inhibition of JcR2a-Flun-R compared with JcR2a (in words) [5]: equally inhibited
4 | C/C(=C\c1ccccc1)CN1CCN(C(c2ccc(F)cc2)c2ccc(F)cc2)CC1 [entry 20] |  |  |  | not beneficial | 
5 | Fc1ccc(C(c2ccc(F)cc2)N2CCN(C/C=C/c3ccccc3)CC2)cc1 [flunarizine] | pronounced resistance | 8 fold | preferentially inhibited Jc1 |  | antiviral activity when applied only during the 5 minute low pH wash [7]: full antiviral activity; susceptibility of chimeric virus with J8-derived E1 (in words) [8]: resistant; susceptibility of chimera with J8 E1 region R4 (in words) [9]: partial resistance; susceptibility of chimera with J8 E1 region R1 (in words) [10]: partial resistance; susceptibility of chimera with J8 E1 region R3 (in words) [11]: resistance profile comparable to Jc1 encoding the flunarizine resistance mutations; resistance conferred by three mutations in E1 and E2 [12]: ca. 50 fold
6 | p-methoxy-flunarizine | pronounced resistance |  |  | beneficial | dose at which cell viability of treated cells was reduced by 50% [13]: 9.6 µM
